Source: ChEMBL document CHEMBL1133963, “Furans with basic side chains: synthesis and biological evaluation of a novel series of antagonists with selectivity for the estrogen receptor alpha” (Bioorg Med Chem Lett, 2001)
Values belong to the compound of their own block, whether it stands above or below them.

Legend:
Estrogen receptor [1] = molecular target: T1, Estrogen receptor (Homo sapiens, UniProt P03372); assay: Displacement of [3H]estradiol from Estrogen receptor alpha
T1 sequence (P03372 whole entry): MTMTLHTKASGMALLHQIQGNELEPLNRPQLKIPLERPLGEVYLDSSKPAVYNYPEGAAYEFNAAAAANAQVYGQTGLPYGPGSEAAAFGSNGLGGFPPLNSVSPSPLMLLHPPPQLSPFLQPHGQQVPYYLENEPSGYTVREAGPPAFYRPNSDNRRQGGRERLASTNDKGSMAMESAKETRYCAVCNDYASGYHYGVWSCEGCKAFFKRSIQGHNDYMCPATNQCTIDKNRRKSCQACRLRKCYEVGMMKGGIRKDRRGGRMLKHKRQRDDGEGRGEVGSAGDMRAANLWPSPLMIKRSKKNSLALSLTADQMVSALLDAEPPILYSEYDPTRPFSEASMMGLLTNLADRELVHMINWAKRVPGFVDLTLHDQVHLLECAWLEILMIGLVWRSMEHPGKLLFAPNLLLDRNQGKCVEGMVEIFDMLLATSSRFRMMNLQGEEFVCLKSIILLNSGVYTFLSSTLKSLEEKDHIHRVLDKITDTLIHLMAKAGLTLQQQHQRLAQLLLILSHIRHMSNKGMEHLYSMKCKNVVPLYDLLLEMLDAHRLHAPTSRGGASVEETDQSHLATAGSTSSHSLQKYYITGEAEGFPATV

Estrogen receptor beta [2] = molecular target: T2, Estrogen receptor beta (Homo sapiens, UniProt Q92731); assay: Displacement of [3H]estradiol from Estrogen receptor beta
Estrogen receptor [3] = molecular target: T1, Estrogen receptor; assay: Inhibitory activity against Estrogen receptor alpha
Estrogen receptor beta [4] = molecular target: T2, Estrogen receptor beta; assay: Inhibitory activity against Estrogen receptor beta

T2 sequence (Q92731 whole entry): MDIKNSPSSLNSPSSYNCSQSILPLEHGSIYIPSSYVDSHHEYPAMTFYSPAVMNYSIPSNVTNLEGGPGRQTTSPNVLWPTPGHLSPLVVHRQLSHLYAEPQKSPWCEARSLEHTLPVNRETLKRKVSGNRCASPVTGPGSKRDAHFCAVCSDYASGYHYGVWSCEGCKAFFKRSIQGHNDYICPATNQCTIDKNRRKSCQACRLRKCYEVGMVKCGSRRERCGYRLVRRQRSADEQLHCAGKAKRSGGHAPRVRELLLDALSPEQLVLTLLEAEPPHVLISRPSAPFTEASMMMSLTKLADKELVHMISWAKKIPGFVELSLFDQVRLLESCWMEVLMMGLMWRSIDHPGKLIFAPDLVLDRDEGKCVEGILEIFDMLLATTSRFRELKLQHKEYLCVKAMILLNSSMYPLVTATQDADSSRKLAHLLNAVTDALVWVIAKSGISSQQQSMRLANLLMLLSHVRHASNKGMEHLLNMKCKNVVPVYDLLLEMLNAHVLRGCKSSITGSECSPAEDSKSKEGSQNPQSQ

Structure (SMILES): CCc1c(-c2ccc(O)cc2)oc(-c2ccccc2)c1-c1ccc(OCCN2CCCCC2)cc1
RBA (Estrogen receptor [1]): 3.8% | RBA (Estrogen receptor beta [2]): 0.43%

Structure (SMILES): CCc1c(-c2ccc(O)cc2)oc(-c2ccc(O)cc2)c1-c1ccc(OCCN2CCCCC2)cc1
IC50 (Estrogen receptor [3]): 65 nM | IC50 (Estrogen receptor beta [4]): 480 nM | RBA (Estrogen receptor [1]): 75% | RBA (Estrogen receptor beta [2]): 3.1%

Structure (SMILES): CCc1c(-c2ccc(O)cc2)oc(-c2ccc(O)cc2)c1-c1ccc(OC)cc1
RBA (Estrogen receptor [1]): 2.5% | RBA (Estrogen receptor beta [2]): 0.91%

More lines, now with the values ahead:

RBA (Estrogen receptor [1]): 32% | RBA (Estrogen receptor beta [2]): 0.47%
Structure (SMILES): Cc1c(-c2ccc(O)cc2)oc(-c2ccc(O)cc2)c1-c1ccc(OCCN2CCCCC2)cc1

RBA (Estrogen receptor [1]): 34% | RBA (Estrogen receptor beta [2]): 4%
Structure (SMILES): CCCc1c(-c2ccc(O)cc2)oc(-c2ccc(O)cc2)c1-c1ccc(OCCN2CCCCC2)cc1

RBA (Estrogen receptor [1]): 0.36% | RBA (Estrogen receptor beta [2]): 0.06%
Structure (SMILES): CCc1c(-c2ccc(OCCN3CCCCC3)cc2)oc(-c2ccc(O)cc2)c1-c1ccc(O)cc1

RBA (Estrogen receptor [1]): 60% | RBA (Estrogen receptor beta [2]): 20%
Structure (SMILES): CCc1c(-c2ccccc2)oc(-c2ccc(O)cc2)c1-c1ccc(OCCN2CCCCC2)cc1
